{"source": "patent US10946071B2", "about": "(MediciNova, Inc., priority 2018, dated 2021)", "key": {"[1]": {"system": "subjects with primary or secondary progressive multiple sclerosis", "assay": "Phase 2 randomized, double-blind, placebo-controlled 96 week study: progression of disability (EDSS), Cox proportional-hazards regression", "assay_type": "in vivo, human", "settings": "for Risk of Confirmed Disability Progression: Cox Hazard Ratio (ibudilast vs. placebo): ibudilast 100 mg/d, 90% CI", "protocol": "A total of 255 male and female subjects from 21 to 65 years old, inclusive, were enrolled into one of two treatment arms (ibudilast 100 mg/d or matching-placebo). […] During the study, subjects were allowed to change medications from one injectable to the other. […] Inhaled and topical steroids are allowed. If a relapse episode occured, a single course of systemic corticosteroids was permitted, as prescribed by the treating neurologist. Subjects returned to the clinic for follow-up visits on a regular basis at Week 4, 8, 12, 24, 36, 48, 60, 72, 84 and 96.\nThe double-blind Treatment Phase consisted of a Baseline visit followed by 10 scheduled clinic visits. The Baseline Visit had to have occured within 45 days following the Screening Visit. At the Baseline Visit (Day 1), subjects who completed all of the screening assessments and continued to meet eligibility criteria were randomized to one of two treatment groups (ibudilast 100 mg/d or placebo) in a 1:1 ratio.\nSubjects took their first dose of study medication (30 mg ibudilast or placebo) on the evening of the Baseline Visit (Day 1). On the morning of Day 2, all subjects begun a 3 capsule BID dosing regimen through Day 14. Subjects randomized to ibudilast started at 60 mg/d (30 mg BID) on Day 2 and remained on 60 mg/d through Day 14. Beginning on Day 15, all subjects increased dosing to 5 capsules BID regimen; those randomized to the ibudilast treatment arm were taking 100 mg/d.\nAfter Day 15, subjects with intolerable side-effects (e.g., nausea, diarrhea, vertigo) were allowed to reduced their dose to either 4 capsules twice a day (80 mg/d for those taking ibudilast) or 3 capsules twice a day (60 mg/d for those taking ibudilast). Subjects with intolerable side-effects (e.g., nausea, diarrhea, vertigo) at the end of Day 14 were allowed to continue taking 3 capsules twice a day at the Investigator's discretion. At the Investigator's discretion, the daily dose of ibudilast were potentially adjusted between 3 capsules twice a day, 4 capsules twice a day, and 5 capsules twice a day over the first 8 weeks of treatment. At the Investigator's discretion, the daily dose of ibudilast could have been divided and taken three times per day if needed to improve tolerability. […] The dosing interval was either twice a day or 3 times per day, at the Investigator's discretion. The dosing interval could also be changed to between twice and three times per day over the course of the entire study, at the Investigator's discretion.\nProgression of disability was measured according to the score on the Expanded Disability Status Scale (EDSS; range, 0 to 10 in 0.5-point increments, with higher scores indicating more disability) with the use of Cox proportional-hazards regression. Confirmed disability progression was defined as an increase in the EDSS score of at least 1.0 point from baseline (or an increase of ≥0.5 points for patients with a baseline EDSS score of >5.0) that was sustained for at least 20 weeks."}, "[2]": {"settings": "Sanftner et al., Xenobiotica 2009; cited from earlier work"}}, "data": [{"smiles": "CC(C)C(=O)c1c(C(C)C)nn2ccccc12", "note": "[ibudilast, 3-isobutyryl-2-isopropylpyrazolo[1,5-a]pyridine]", "values": [{"measurement": "hazard ratio for 20-week confirmed disability progression (as measured by the EDSS score) with ibudilast as compared with placebo", "setting": "[1]; all subjects, ibudilast 100 mg/d oral vs placebo, 96 weeks, 95% CI", "result": 0.74}, {"measurement": "probability of no progression at week 72", "setting": "[1]; subgroup receiving interferon-beta, ibudilast arm (placebo arm 0.804)", "result": 0.952}, {"measurement": "proportion of subjects with disability progression at week 96 (not confirmed progression): ibudilast vs. placebo risk difference", "setting": "[1]; subgroup receiving interferon-beta, week 96, 90% CI: −0.499 to −0.068", "result": "−0.283"}, {"measurement": "time to confirmed disability progression, ibudilast compared with placebo (in words)", "setting": "[1]; subgroup taking GA as concomitant medication", "result": "the placebo arm was superior to ibudilast"}, {"measurement": "Risk of Confirmed Disability Progression: Cox Hazard Ratio (ibudilast vs. placebo)", "setting": "[1]; subgroup: concomitant medication taking GA (glatiramer acetate)", "result": 1.229}, {"measurement": "Risk of Confirmed Disability Progression: Cox Hazard Ratio (ibudilast vs. placebo)", "setting": "[1]; subgroup: concomitant medication taking Interferon-Beta", "result": 0.238}, {"measurement": "Risk of Confirmed Disability Progression: Cox Hazard Ratio (ibudilast vs. placebo)", "setting": "[1]; subgroup: no concomitant glatiramer acetate or interferon-beta", "result": 0.672}, {"measurement": "time to confirmed disability progression, ibudilast compared with placebo (in words)", "setting": "[1]; the other two subgroups (concomitant interferon-beta; no concomitant medication)", "result": "ibudilast was better than placebo"}, {"measurement": "CNS penetration", "setting": "[2]", "result": "good CNS penetration"}]}]}
